One data set can be described thus: solubility. The conditions noted are these: for solubility in organic solvents: most of the organic solvents. In kind it is physicochemical.
The nature of data set [1]: antipyretic effect, baker yeast hyperthermia (LOUX). The class given is in vivo. Particulars: rats; paracetamol 50 to 500 mg. As to the method: The antipyretic effect of the compounds of formula I has been determined according to the method described by J. J. LOUX and cowork. Toxicol. and Appl. Pharmacol. 22 (1972) 672. According to this method a hyperthermic crisis occurs in the rats after subcutaneous injection of baker yeast.
The compounds to be tested are administered orally in a suspension of an arabic gum solution 19 hours after the injection of yeast.
The body temperatures are measured from 1 to 5 hours after the ingestion of the compounds of formula I by means of a thermistor. The dosages tested range from 25 to 200 mg/kg.
The increase of body temperature in the control rats is about 2° in comparison of that of the untreated rats. The animals which receive the compounds of formula I show only a moderate increase of temperature, mainly 3 and 4 hours after the ingestion of the tested compound. The highest dosages (150 and 200 mg/kg) caused a return to the initial temperature in the treated animals.
In similar experimental conditions, batches of rats receive paracetamol at dose ranging from 50 to 500 mg.

For data set [2] the following is noted: nephrotoxicity and hepatotoxicity context; cited from earlier work.

The values below come from US4404215A, “Piperidyl phenyl trifluoroethanols” (Science Union et Cie, priority 1978, dated 1983).

Each structure is given as a SMILES string.

On to `CCCCCCCCCCCCCCCCNc1ccc(C(O)C(F)(F)F)cc1` (racemic) [Example 8, 1-(4-nhexadecylaminophenyl) 2,2,2-trifluoroethanol], for which, in “solubility” (hydrochloric acid or acetic acid), the “solubility in dilute solutions of acids” value was “soluble”.
As to `CC(=O)Nc1ccc(C(O)C(F)(F)F)cc1` (centres unmarked) [Example 1, 1-(4-acetamidophenyl) 2,2,2-trifluoroethanol], in the data set “solubility” (ethanol), the solubility in ethanol entry is listed as “soluble”. Moreover, the solubility in methanol entry in the data set “solubility” (methanol) was “soluble”. Also, in the data set “solubility”, the solubility in water result is “insoluble”.
On to `CC(C)C(=O)Nc1ccc(C(O)C(F)(F)F)cc1` (centres unmarked) [Example 2, 1-(4-isobutyramidophenyl) 2,2,2-trifluoroethanol], for which, in “solubility”, the “solubility in organic solvents” value was “soluble” and the solubility in water entry is “insoluble”.
For `OC(c1ccc(NC2CCN(CCc3ccccc3)CC2)cc1)C(F)(F)F` (centres unmarked) [Example 9, 4-[4-(2,2,2-trifluoro 1-hydroxyethyl)phenylamino] 1-(2-phenylethyl) piperidine], the “solubility in N/10 hydrochloric acid” value in “solubility” (just calculated amount of N/10 hydrochloric acid) is recorded as “soluble”.
With `CCOC(c1ccc(NC(C)=O)cc1)C(F)(F)F` (centres unmarked) [Example 10, 1-(4-acetamidophenyl) 1-ethoxy 2,2,2-trifluoroethane], in the data set “solubility”, the “solubility in organic solvents” value is on record as “soluble” and the solubility in water entry is listed as “insoluble”.
In the case of `CC(=O)Nc1ccc(O)cc1` [paracetamol], in data set [1], the “useful dose which curbs significantly the increase of temperature, relative to compounds of formula I” value is listed as “about twice of that of the compounds of formula I”. Also, the toxicity entry in data set [2] was “well-known toxicity”.
